Reference: patent US12599622B2, “Compounds to modulate intestinal absorption of nutrients” (The Brigham and Women's Hospital, Inc., priority 2013, dated 2026)

Columns and labels:
Sprague-Dawley (SD) rats = assay: Oral Glucose Tolerance Test (OGTT) after pre-gavage; assay type: in vivo, rat; conditions: 15-hour fasted rats, 500 mg/kg 3 times
Procedure: To evaluate the in vivo effect of ASP-PC on postprandial glucose absorption, Sprague-Dawley (SD) rats were pre-gavaged with the particles and tested using the Oral Glucose Tolerance Test (OGTT) method. […] For shorter fasting time, the rats were fasted for 5 hour (starting time: 7 am the same day of OGTT) and gavaged with saline or ASP-PC (starting time: 12 am the same day, dose: 500 mg/kg rat, 3 times, 1-hour apart for each gavage). Blood was collected from the tail vein to measure blood glucose level using a glucometer (OneTouch UltraSmart, LifeScan Inc., USA). Statistical significance was determined using a paired Student t-test. Results were considered significant when p≤0.05.
ASP-PC particles were gavaged in Sprague-Dawley (SD) rats fasted for 5 hour (FIGS. 11A, 11B, and 11C) or 15 hour (FIGS. 11D, 11E, andllF) (dose: 500 mg/kg rat, 3 times, 1-hour apart for each gavage).

[1] = followed by excretion via feces; cited from earlier work
[2] = aluminum release / aluminum content by ICP-AES; assay type: physicochemical
Procedure: To confirm the pH dependent release of aluminum from sucralfate and ASP, aluminum-release was measured during ASP paste formation. […] The aluminum content in the supernatants was measured using inductively coupled plasma atomic emission spectroscopy (ICP-AES, ULTIMA-2, Horiba).
To measure additional aluminum release from aluminum-pre-released ASP, formed pastes were washed with DDW, and 500 mg was added to 10 ml of simulated stomach acid. The samples were vortexed for 5 minutes and incubated for 2 hours. The aluminum content in the supernatant solutions was measured using ICP-AES.

[3] = integrative permeation test: glucose barrier on mucin-coated membrane in Franz cell; conditions: paste in simulated stomach acid pH 1.0 on mucin-coated membrane; normalized to membrane without material (0% blocked)
Procedure: Specifically, a cellulose nitrate membrane (pore size: 0.2 μm, Whatman, Germany) was incubated in a 3% w/v porcine stomach mucin (Sigma-Aldrich, USA) solution in Hank's balanced salt solution (HBSS) and gently shaken for 2 hours at room temperature. The membrane was washed with distilled deionized water (DDW, pH 7) to remove the excess mucin solution. The mucin-coated membranes were used within 1 hour following preparation. To measure the thickness of the mucin layer, the mucin-coated membrane was lyophilized and imaged using scanning electron microscope (SEM) and the thickness of randomly selected positions was examined (average mucin layer thickness: ˜100 μm).
The dry weight was calculated from dry weights of material-attached membranes and mucin-coated membranes. […] The permeation test was performed in triplicate. The glucose concentration was measured using high performance liquid chromatography (HPLC, Agilent, USA) with an analytical C18 column (Zorbax Eclipse XDB-C18, Agilent). The flow rate was 1 ml/minute, the eluent was DDW, and the wavelength of UV detector was 195 nm.
The barrier properties of the resultant particles were measured by adding 0.9 ml of particle dispersion and 0.1 ml of 10× simulated stomach acid.

[4] = dynamic viscosity by rheometer in simulated stomach acid; assay type: physicochemical; conditions: 1% w/v in simulated stomach acid
Procedure: Dynamic viscosity was measured using a 20-mm plate with 200-μm gaps (shear rate: 0.01-100 l/s in log scale, shear rate of 1 l/s was selected to compare viscosity of materials).

[5] = mechanical stability of pastes (wet and dry weight over time); assay type: physicochemical
Procedure: To assess mechanical stability and physical properties of ASP, each 500 mg of ASP prepared from HCl solutions (0.1-0.3N) was added to 1 ml of simulated stomach acid (pH 1.0) in 37° C. At time points including 0, 10, 30, 60, 120 and 300 minutes, supernatant was removed to measure the wet weight. The remaining paste was lyophilized to measure the dry weight.

sucrose octasulfate-aluminum complex [sucralfate]
peak glucose values at all other time points versus saline (Sprague-Dawley (SD) rats): similar | 5-minutes glucose level following OGTT (Sprague-Dawley (SD) rats; p<0.003 vs saline): 97.8 ± 7.3 mg/dL | duration in the GI tract [1]: 2 to 6 h | percentage of total aluminum released ([2]; in 0.1N HCl): ~9.4% | percentage of total aluminum released ([2]; in 0.3N HCl): ~44.8% | original aluminum content released ([2]; reaction with simulated stomach acid (pH 1.0)): ~9.4% | blocking of glucose (barrier property to glucose permeation) [3]: 62% | viscosity [4]: very high viscosity | total mass liberated upon exposure to stomach acid [5]: ~10%
